Source: patent US6759396B1, “Compositions based on a synergistic mixture of at least one VDR ligand and a retinoid” (Centre International de Recherches Dermatalogiques Galderma …, priority 1995, dated 2004)

How the values were obtained:
[1] = test system: RARγ receptors relative to RARα receptors; test: dissociation constants for RAR receptors (standard tests from cited references); assay type: binding, human; conditions: selectivity for RARγ relative to RARα
Procedure: The dissociation constants are determined by means of tests which are standard to those skilled in the art. These tests are described in particular in the following references: (1) “Selective Synthetic Ligands for Nuclear Retinoic Acid Receptor Subtypes” in RETINOIDS, Progress in Research and Clinical Applications, Chapter 19 (pp 261-267), Marcel Dekker Inc., published by Maria A. Livrea and Lester Packer; (2) “Synthetic Retinoids: Receptor Selectivity and Biological Activity” in Pharmacol. Skin, Basle, Karger, 1993, Volume 5, pp. 117-127; (3) “Selective Synthetic Ligands for Human Nuclear Retinoic Acid Receptors” in Skin Pharmacology, 1992, Vol. 5, pp. 57-65; (4) “Identification of Synthetic Retinoids with Selectivity for Human Nuclear Retinoic Acid Receptor-γ” in Biochemical and Biophysical Research Communications, Vol. 186, No. 2, July 1992, pp. 977-983; (5) “Selective High Affinity RAR-α or RAR-β Retinoic Acid Receptor Ligands” in Mol. Pharmacol., Vol. 40, pp. 556-562.
In an advantageous manner, the retinoids which are selective for the RARγ receptors relative to the RARα receptors have an RARα/RARγ dissociation constant ratio greater than or equal to 8.

keratinocytes = test: keratinocyte proliferation, XTT assay (Cell proliferation kit II); assay type: cell-based
Procedure: The keratinocytes were obtained from a specimen of skin obtained from plastic surgery. They are used at the second passage. The cells are cultured at 37° C. in a humid atmosphere in the presence of 5% CO2 according to the method of Rheinwald and Green in the presence of 3T3 fibroblasts treated with mitomycin in MEM medium containing 10% (v/v) foetal calf serum (FCS), 0.4 μg/ml of hydrocortisone, 10 ng/ml of EGF (epidermal growth factor) and 10^−9 M chloleratoxin. The 3T3 cells are inoculated 24 h before the keratinocytes at a rate of 15,000 cells per cm^2. Next, the keratinocytes are inoculated at a rate of 4000 cells per cm^2. […] After culturing for 4 days, the cells are harvested in order to determine the proliferation. The cell proliferation is determined using a kit with the reference name “Cell proliferation kit II” (XTT assay) used according to the indications of the manufacturer (Boehringer, ref. 1465 05). It is expressed in absorbance units at 495 nm. The lower the value of the absorbance measured, the more the keratinocyte proliferation has been inhibited.

SMILES | RARα/RARγ dissociation constant ratio [1] | synergism of inhibition on keratinocyte proliferation (keratinocytes; in combination with 1,25-dihydroxyvitamin D3, identical conditions) | inhibition on keratinocyte proliferation (keratinocytes; in combination with 1,25-dihydroxyvitamin D3, 4 days culture, FIGS. 1 and 2)
CC1(C)CCC(C)(C)c2cc(C(O)C#Cc3ccc(C(=O)O)c(O)c3)ccc21 (centres unmarked) [2-hydroxy-4-[3-hydroxy-3-(5,6,7,8-tetrahydro-5,5,8,8-tetramethyl-2-naphthyl)-1-propynyl]benzoic acid] | 36.6 | – | –
COc1ccc(-c2ccc3cc(C(=O)O)ccc3c2)cc1C12CC3CC(CC(C3)C1)C2 [6-[3-(1-adamantyl)-4-methoxyphenyl]-2-naphthoic acid] | 84.4 | – | –
CC1=C(/C=C/C(C)=C/C=C/C(C)=C/C(=O)O)C(C)(C)CCC1 [all-trans retinoic acid, reference compound] | – | No synergism | –
O=C(O)c1ccc2cc(-c3ccc(O)c(C45CC6CC(CC(C6)C4)C5)c3)ccc2c1 [compound 1, 6-[3-(1-adamantyl)-4-hydroxyphenyl]-2-naphthoic acid] | 8.5 | – | very good inhibition
